# Results published in publication PMC7774954, “Interactomic affinity profiling by holdup assay: Acetylation and distal residues impact the PDZome-binding specificity of PTEN phosphatase” (PLoS ONE, 2020).
# Experiments:
# MAGI2 PDZ 3 = biological target: T1, MAGI2 PDZ 3 (Homo sapiens, UniProt Q86UL8); experiment: Holdup assay, MAGI2-3; format: binding
# T1 construct: made in house; host or cells: E. coli
# Protocol: (§1) The holdup assay was performed on a Tecan freedom Evo200 robot with 384-well plates in singlicate for the three 11-mer PTEN variants and the 13-mer PTEN peptide as described in [31, 32]. Briefly, prior to interaction assay, 2.5 μL of streptavidin resin was saturated in each well with 20 μL of biotinylated PBM peptides (42 μM) and then washed twice with an excess of free biotin, while the reference resin was incubated only with biotin. Right before the holdup experiment, the PDZ library was spiked with an internal standard of lysozyme. Then, the biotin- or PBM-saturated resin was incubated, each in a distinct well of a 384-well plate, with complete cell lysates diluted so that the concentration of the tag-PDZ present in the crude extract is adjusted at 4 μM. After a sufficient time to reach complex equilibrium (15 min.), a fast and mild filtration step is performed and the tag-PDZ concentrations were measured by capillary electrophoresis instrument (LabChip GXII, PerkinElmer, Massachusets, USA). Standard markers were used to convert migration time into molecular weight on the LabChip software and inappropriate molecular weight markers were corrected or excluded.
# (§2) For filtered data, the BI was extracted with the following equation (Eq 1) that estimates the depleted fraction after superimposition of the sample and reference electropherograms: BI=Iref−Ilig/Iref (1) where Iref and Ilig are the intensities of the tag-PDZ peaks measured, for each PDZ domain/PBM peptide interaction pair, in the biotin reference and the PBM electropherograms, respectively.
# (§3) BIs were transformed into dissociation constants (KD) using the following formula: KD=([PDZtot]−BI·[PDZtot])·([PBMtot]−BI·[PDZtot])/BI·[PDZtot] (2) where [PDZtot] and [PBMtot] correspond to the total concentrations of the PDZ domain (usually around 4 μM) and the PBM peptide used during the assay. Since the PBMtot concentration in the resin during the holdup assay parameter may differ from one peptide to another and remains unknown, it is impossible to directly convert BI values into KD constants. We systematically determined the KD constants for a subset of PDZ/PBM pairs by competitive FP. […] For each PBM, the average peptide concentration was calculated after outlier rejection based on the absolute distances from the median as compared to three times the standard deviation (3σ rule), with never more than 2 values rejected.
# NHERF2 PDZ 2 = biological target: T2, NHERF2 PDZ 2 (Homo sapiens, UniProt Q15599); experiment: Holdup assay, NHERF2-2; format: binding
# T2 construct: made in house; host or cells: E. coli
# Protocol: as §1, §2, §3
# SNTB2 PDZ 1 = biological target: T3, SNTB2 PDZ 1 (Homo sapiens, UniProt Q13425); experiment: Holdup assay, SNTB2-1; format: binding; details: PDZ domain SNTB2-1
# T3 construct: made in house; host or cells: E. coli
# T3 sequence (Q13425 115-198 limits assumed): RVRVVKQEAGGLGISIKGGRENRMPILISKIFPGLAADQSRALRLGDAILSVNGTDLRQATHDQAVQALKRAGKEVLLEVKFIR
# Protocol: as §1, §2, §3
# ARHGEF11-1 = biological target: T4, ARHGEF11-1 (Homo sapiens, UniProt O15085); experiment: Holdup assay, ARHGEF11-1; format: binding
# T4 sequence (O15085 47-126): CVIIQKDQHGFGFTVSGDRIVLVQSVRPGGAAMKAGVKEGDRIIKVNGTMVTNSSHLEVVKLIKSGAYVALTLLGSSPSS
# DLG2-2 = DLG2-2 (Homo sapiens, UniProt Q15700); experiment: Holdup assay, DLG2-2; format: binding
# DLG3-2 = biological target: T5, DLG3-2 (Homo sapiens, UniProt Q92796); experiment: Holdup assay, DLG3-2; format: binding
# T5 sequence (Q92796 244-330): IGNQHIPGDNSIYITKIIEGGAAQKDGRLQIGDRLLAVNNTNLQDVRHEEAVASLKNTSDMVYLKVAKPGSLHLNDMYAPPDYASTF
# DLG4-2 = DLG4-2 (Homo sapiens, UniProt P78352); experiment: Holdup assay, DLG4-2; format: binding
# FRMPD2-3 = experiment: Holdup assay, FRMPD2-3; format: binding, human
# GIPC1-1 = experiment: Holdup assay, GIPC1-1; format: binding, human
# GORASP1-1 = GORASP1-1 (Homo sapiens, UniProt Q9BQQ3); experiment: Holdup assay, GORASP1-1; format: binding
# GRIP1-3 = experiment: Holdup assay, GRIP1-3; format: binding, human
# GRIP1-6 = experiment: Holdup assay, GRIP1-6; format: binding, human
# GRIP1-7 = experiment: Holdup assay, GRIP1-7; format: binding, human
# IL16-2 = experiment: Holdup assay, IL16-2; format: binding, human
# INADL-10 = experiment: Holdup assay, INADL-10; format: binding, human
# INADL-2 = experiment: Holdup assay, INADL-2; format: binding, human
# INADL-4 = experiment: Holdup assay, INADL-4; format: binding, human
# LIN7C-1 = experiment: Holdup assay, LIN7C-1; format: binding, human
# LNX2-3 = experiment: Holdup assay, LNX2-3; format: binding, human
# MAGI1-6 = experiment: Holdup assay, MAGI1-6; format: binding, human
# MAGI3-1 = experiment: Holdup assay, MAGI3-1; format: binding, human
# MAGI3-4 = experiment: Holdup assay, MAGI3-4; format: binding, human
# MAGIX-1 = experiment: Holdup assay, MAGIX-1; format: binding, human
# MLLT4-1 = experiment: Holdup assay, MLLT4-1; format: binding, human
# MPDZ-1 = experiment: Holdup assay, MPDZ-1; format: binding, human
# GORASP1-1, sequence (Q9BQQ3 2-440): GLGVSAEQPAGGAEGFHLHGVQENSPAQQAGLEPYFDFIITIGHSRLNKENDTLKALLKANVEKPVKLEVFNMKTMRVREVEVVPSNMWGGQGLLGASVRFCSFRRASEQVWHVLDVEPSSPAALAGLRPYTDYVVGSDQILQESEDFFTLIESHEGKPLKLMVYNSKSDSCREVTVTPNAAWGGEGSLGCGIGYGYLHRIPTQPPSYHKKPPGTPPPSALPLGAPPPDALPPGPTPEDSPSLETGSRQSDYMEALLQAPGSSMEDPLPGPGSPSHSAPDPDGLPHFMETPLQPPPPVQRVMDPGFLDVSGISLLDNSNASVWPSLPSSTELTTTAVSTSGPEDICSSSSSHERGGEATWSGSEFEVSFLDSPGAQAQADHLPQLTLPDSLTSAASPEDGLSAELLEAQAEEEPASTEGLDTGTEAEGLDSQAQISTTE
# T1 sequence (Q86UL8 605-683 limits assumed): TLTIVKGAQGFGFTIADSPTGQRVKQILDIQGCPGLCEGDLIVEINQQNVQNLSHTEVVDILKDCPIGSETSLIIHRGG
# T2 sequence (Q15599 150-230 limits assumed): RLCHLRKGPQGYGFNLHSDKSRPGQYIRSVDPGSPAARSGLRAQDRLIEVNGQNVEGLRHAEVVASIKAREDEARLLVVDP
# DLG2-2, sequence (Q15700 193-280): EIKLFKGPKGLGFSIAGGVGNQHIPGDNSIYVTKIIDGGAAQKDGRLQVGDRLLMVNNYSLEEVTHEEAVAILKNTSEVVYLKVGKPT
# DLG4-2, sequence (P78352 160-246): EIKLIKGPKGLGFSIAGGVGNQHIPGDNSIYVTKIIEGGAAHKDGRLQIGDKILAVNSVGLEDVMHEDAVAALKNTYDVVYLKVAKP
smiles,measurement,setting,value
CC[C@H](C)[C@H](NC(=O)[C@H](CCC(N)=O)NC(=O)[C@@H](NC(=O)[C@H](Cc1c[nH]cn1)NC(=O)[C@H](CCC(N)=O)NC(=O)[C@H](CC(=O)O)NC(=O)[C@H](CCC(=O)O)NC(=O)[C@H](CC(=O)O)NC(=O)CCC(=O)NCCCOCCOCCOCCCNC(=O)CCCC[C@@H]1SC[C@@H]2NC(=O)N[C@@H]21)[C@@H](C)O)C(=O)N[C@H](C(=O)N[C@@H](CCCCN)C(=O)N[C@H](C(=O)O)C(C)C)[C@@H](C)O [PTEN_11],Kd,MAGI2 PDZ 3,47.2 µM
same,BI,MAGI2 PDZ 3; MAGI2-3,0.407
same,Kd,NHERF2 PDZ 2,35.3 µM
same,BI,"NHERF2 PDZ 2; PDZ domain NHERF2-2 (gene MPDZ, 9)",0.476
same,BI,SNTB2 PDZ 1,0.023
same,BI,ARHGEF11-1,0.026
same,LogKD,ARHGEF11-1,3.519
same,BI,DLG2-2,0.168
same,BI,DLG3-2,0.13
same,BI,DLG4-2,0.124
same,BI,FRMPD2-3,-0.046
same,LogKD,FRMPD2-3,3.519
same,BI,GIPC1-1,0.042
same,LogKD,GIPC1-1,3.519
same,BI,GORASP1-1,0.037
same,LogKD,GORASP1-1,3.519
same,BI,GRIP1-3,-0.015
same,LogKD,GRIP1-3,3.519
same,BI,GRIP1-6,0.065
same,LogKD,GRIP1-6,3.519
same,BI,GRIP1-7,-0.03
same,LogKD,GRIP1-7,3.519
same,BI,IL16-2,-0.132
same,LogKD,IL16-2,3.519
same,BI,INADL-10,0.022
same,LogKD,INADL-10,3.519
same,BI,INADL-2,0.007
same,LogKD,INADL-2,3.519
same,BI,INADL-4,-0.049
same,LogKD,INADL-4,3.519
same,BI,LIN7C-1,-0.041
same,LogKD,LIN7C-1,3.519
same,BI,LNX2-3,-0.164
same,LogKD,LNX2-3,3.519
same,BI,MAGI1-6,-0.04
same,LogKD,MAGI1-6,3.519
same,BI,MAGI3-1,-0.011
same,LogKD,MAGI3-1,3.519
same,BI,MAGI3-4,-0.092
same,LogKD,MAGI3-4,3.519
same,BI,MAGIX-1,0.014
same,LogKD,MAGIX-1,3.519
same,BI,MLLT4-1,-0.038
same,LogKD,MLLT4-1,3.519
same,BI,MPDZ-1,0.039
same,LogKD,MPDZ-1,3.519
